Experimental data taken from patent US20230235283A1, “CULTURE MEDIUM FOR ESOPHAGEAL SQUAMOUS CELL CARCINOMA EPITHELIAL CELLS, CULTURE METHOD, AND APPLICATION THEREOF” (PRECEDO PHARMACEUTICALS CO., LTD, priority 2020, published 2023).

Columns and labels:
Type in all cases: cell-based, human
[1] = test system: ESCC tumor cells (No. 0F0064); assay: Effects of different factors added to basic medium BM on proliferation of primary ESCC cells (cell count); conditions: factor added to BM at concentrations of Table 3; 12 days of culture; FIGS. 1A-1E
Experimental: (§1) Extracellular matrix gel (Matrigel®) (manufactured by BD Biosciences) was diluted at 1:100 in serum-free DMEM/F12 medium to prepare an extracellular matrix dilution, which was added to a 48-well culture plate with 500 μl/well to completely cover the bottom of the wells of the culture plate. The resultant was let stand for 1 hour in a 37° C. incubator. After 1 hour, the extracellular matrix dilution was removed to provide a Matrigel-coated plate.
Preparation of basic medium (abbreviated as BM): BM was prepared by adding 0.2 vol. % of Primocin (purchased from Invivogen, with a concentration of 50 mg/mL) to the commercial DMEM/F-12 medium to provide a final concentration of 100 μg/mL.
Next, different kinds and concentrations of additive factors (Table 3) were added to the basic medium (BM), so as to prepare culture mediums for ESCC epithelial cells containing different additive components.
The culture mediums with different components were added at a volume of 500 μl/well to 48-well plates which were coated with extracellular matrix gel (Matrigel). ESCC tumor cells (No. 0F0064) isolated from ESCC tissue according to the same method described in Example 1 were inoculated in a Matrigel-coated 48-well culture plate at a cell density of 2×10^4 cells/cm^2. After surface disinfection, the plate was placed in a 37° C., 5% CO2 incubator (purchased from Thermo Fisher), such that equal numbers of freshly isolated ESCC tumor cells (No. 0F0064) were cultured under different medium formulations. The culture mediums were renewed every 4 days after the start of the culture. After 12 days of culture, cell counts were performed. As an experiment control, the basis medium (BM) without any additive was used. The ordinate in each figure represents the ratio of the number of cells obtained after culture in different mediums to the number of cells obtained after culture in basic medium BM. As shown in the figures, the addition of different concentrations of different factors as shown in Table 3 to BM has different effects on cell proliferation.

[2] = test system: primary ESCC tumor cells (No. 0F0061); assay: Effects of removing single factor or combination of factors from FEM on continuous expansion of primary ESCC cells; conditions: continuous culture, third passage; FIG. 12 and FIG. 13
Experimental: The culture medium for primary ESCC epithelial cell FEM was prepared in the same method of Example 2. As a control, a basic medium (hereinafter also referred to as “BM”) was prepared using the same method of Example 2. In addition, six other different culture mediums were prepared according to Table 9.
ESCC tissue-originated primary ESCC tumor cells (No. 0F0061) were obtained by using the same method as in Example 1. Then, the primary ESCC tumor cells were inoculated in a Matrigel® (manufactured by BD Biosciences)-coated 24-well plate at a density of 4×10^4 cells/cm^2. 1 mL of the culture medium for primary ESCC epithelial cells (FEM) of the invention was used, which was then placed in a 37° C., 5% CO2 incubator (purchased from Thermo Fisher) for culture.
When the cells in the culture plate grew to cover about 80% of the bottom area, the medium supernatant in the 24-well plate was discarded and 400 μL 0.05% trypsin (purchased from Gibco) was added for cell digestion; the cells were incubated at 37° C. for 10 minutes until the cells were completely digested as observed under the microscope (EVOS M500, Invitrogen); then the digestion was terminated by using 800 μL of DMEM/F12 culture solution containing 5% (v/v) fetal bovine serum, 100 U/mL penicillin, and 100 μg/mL penicillin; the resultant was collected into a 15 mL centrifuge tube and centrifuged at 1500 rpm for 4 minutes, and then the supernatant was discarded. The centrifuged cell sediments were resuspended in the culture medium of the invention and were counted with a flow imaging counter (JIMBIO FIL, Jiangsu Jimbio Technology Co., Ltd.) to obtain the total number of cells. The cells were incubated into another 24-well culture plate coated with extracellular matrix gel at a density of 2×10^4 cells/cm^2 for further culture. The cells were inoculated into the 24-well culture plate coated with extracellular matrix gel at the same density using other seven different mediums for culture.
When the passaged cells grew in the culture plate to cover about 80% of the bottom area of the plate again, the cultured cells were digested, collected and counted according to the above operating method. The cells were inoculated at a density of 2×10^4 cells/cm^2 again and cultured continuously using the respective culture mediums of different compositions.
The following is the formula for calculating the cell population doubling number of primary ESCC epithelial cells under different culture conditions:
Population Doubling (PD)=3.32*log10 (total number of digested cells/the number of cells at initial inoculation), see Chapman et al., Stem Cell Research & Therapy 2014, 5: 60. […]

[3] = test system: ESCC tumor cells (Sample No. 0F0065); assay: Effects of different concentrations of the additive factors in FEM on proliferation of primary ESCC cells; conditions: factor added back to FEM lacking it; first passage; FIGS. 3A-3H; preferably
Experimental: as §1, with “plate with 200 μl/well to” for “plate with 500 μl/well to”, “Matrigel-coated plate. […]” for “Matrigel-coated plate.”
ESCC epithelial cells originated from cancer tissue were isolated and obtained from the cancer tissue of an ESCC patient (Sample No. 0F0065) using the same method as in Example 1. Next, ESCC tumor cells originated from cancer tissue were counted with a flow imaging counter (JIMBIO FIL, Jiangsu Jimbio Technology Co., Ltd.) to obtain the total number of cells. […] The centrifuged cell sediments were resuspended in the basic medium BM and were counted with a flow imaging counter (JIMBIO FIL, Jiangsu Jimbio Technology Co., Ltd.) to obtain the total number of cells. […]

Molecule	effect on cell proliferation (ratio of number of cells to that in basic medium BM) [1]	proliferation effect of cells after removal of the component from FEM [2]	amount in the culture medium, preferable (proliferation ratio to control well) [3]
epidermal growth factor: growth factor from Sino Biological (NSDSECPLSHDGYCLHDGVCMYIEALDKYACNCVVGYIGERCQYRDLKWWELR; Epidermal growth factor; UniProt P01133 971-1023, looked up)	promoting effects on cell proliferation	–	–
Oc1ccc(-c2nc(-c3ccncc3)c(-c3ccc(F)cc3)[nH]2)cc1 [SB202190]	–	significantly attenuated	–
hepatocyte growth factor: growth factor from Sino Biological	promoting effects on cell proliferation	–	2.5 to 20 ng/mL
insulin-like growth factor 1: growth factor from Sino Biological	promoting effects on cell proliferation	–	–
Cc1cccc(-c2nn(C(=S)Nc3ccccc3)cc2-c2ccnc3ccccc23)n1 [Compound A83-01]	–	significantly attenuated	–
CN1C(=O)C(c2c(F)cccc2F)N(C)c2nc(Nc3ccc(S(N)(=O)=O)cc3)ncc21 (stereo not shown) [Compound 1, 4-((7-(2,6-difluorophenyl)-5,8-dimethyl-6-oxo-5,6,7,8-tetrahydropteridin-2-yl)amino)benzsulfamide]	promoting effects on cell proliferation	significantly attenuated	–
C[C@@H](N)[C@H]1CC[C@H](C(=O)Nc2ccncc2)CC1 [Compound Y27632, reference compound]	promoting effects on cell proliferation	significantly attenuated	–
